Experimental data published in patent publication US11807644B2 (PMV Pharmaceuticals, Inc., priority 2020, dated 2023).

Molecular target: T1, recombinant His-tag Y220C p53 DBD protein (Homo sapiens, UniProt P04637, Y220C)
T1 construct: recombinant His-tag Y220C p53 DBD protein (amino acids #˜94-312)
Assay: In vitro DNA binding activity assay (TR-FRET): binding of His-tag Y220C p53 DBD to biotin-labeled consensus DNA
Format: biochemical
Conditions: SC150 = concentration to increase DNA binding by […], His-tag Y220C p53 DBD, biotin-labeled consensus DNA

Structure (SMILES) | Y220C SC150 (μM)
CN1CC[C@@H](Nc2cccc3c2cc(-c2noc(CNC(=O)c4ccc(C(C)(C)C)n4C)n2)n3CC(F)(F)F)[C@@H](F)C1 [Compound 542B, 5-tert-butyl-N-{[3-(4-{[(3S,4R)-3-fluoro-1-methylpiperidin-4-yl]amino}-1-(2,2,2-trifluoroethyl)-1H-indol-2-yl)-1,2,4-oxadiazol-5-yl]methyl}-1-methyl-1H-pyrrole-2-carboxamide] | * (* = 0 μM ≤ SC150 < 0.1 μM)
CN1CC[C@@H](Nc2cccc3c2cc(-c2noc(CNC(=O)c4cc(C(C)(C)C)on4)n2)n3CC(F)(F)F)[C@@H](F)C1 [Compound 543B, 5-tert-butyl-N-{[3-(4-{[(3S,4R)-3-fluoro-1-methylpiperidin-4-yl]amino}-1-(2,2,2-trifluoroethyl)-1H-indol-2-yl)-1,2,4-oxadiazol-5-yl]methyl}-1,2-oxazole-3-carboxamide] | * (* = 0 μM ≤ SC150 < 0.1 μM)
CN1CC[C@@H](Nc2cccc3c2cc(-c2noc(C(=O)NCc4ccccc4)n2)n3CC(F)(F)F)[C@@H](F)C1 [Compound 544B, N-benzyl-3-(4-{[(3S,4R)-3-fluoro-1-methylpiperidin-4-yl]amino}-1-(2,2,2-trifluoroethyl)-1H-indol-2-yl)-1,2,4-oxadiazole-5-carboxamide] | ** (** = 0.1 μM ≤ SC150 < 0.5 μM)
CN1CC[C@@H](Nc2cccc3c2cc(-c2noc(C(=O)NCC4CC4)n2)n3CC(F)(F)F)[C@@H](F)C1 [Compound 545B, N-(cyclopropylmethyl)-3-(4-{[(3S,4R)-3-fluoro-1-methylpiperidin-4-yl]amino}-1-(2,2,2-trifluoroethyl)-1H-indol-2-yl)-1,2,4-oxadiazole-5-carboxamide] | ** (** = 0.1 μM ≤ SC150 < 0.5 μM)
CN1CC[C@@H](Nc2cccc3c2cc(-c2noc(C(=O)NCc4cnn(C)c4)n2)n3CC(F)(F)F)[C@@H](F)C1 [Compound 546B, 3-(4-{[(3S,4R)-3-fluoro-1-methylpiperidin-4-yl]amino}-1-(2,2,2-trifluoroethyl)-1H-indol-2-yl)-N-[(1-methyl-1H-pyrazol-4-yl)methyl]-1,2,4-oxadiazole-5-carboxamide] | ** (** = 0.1 μM ≤ SC150 < 0.5 μM)
COCC(C)(C)n1ccc(C(=O)NCc2nc(-c3cc4c(N[C@@H]5CCN(C)C[C@@H]5F)cccc4n3CC(F)(F)F)no2)n1 [Compound 547B, N-{[3-(4-{[(3S,4R)-3-fluoro-1-methylpiperidin-4-yl]amino}-1-(2,2,2-trifluoroethyl)-1H-indol-2-yl)-1,2,4-oxadiazol-5-yl]methyl}-1-(1-methoxy-2-methylpropan-2-yl)-1H-pyrazole-3-carboxamide] | * (* = 0 μM ≤ SC150 < 0.1 μM)
CN1CC[C@@H](Nc2cccc3c2cc(-c2noc(CNC(=O)c4ccn(C(C)(C)CF)n4)n2)n3CC(F)(F)F)[C@@H](F)C1 [Compound 548B, N-{[3-(4-{[(3S,4R)-3-fluoro-1-methylpiperidin-4-yl]amino}-1-(2,2,2-trifluoroethyl)-1H-indol-2-yl)-1,2,4-oxadiazol-5-yl]methyl}-1-(1-fluoro-2-methylpropan-2-yl)-1H-pyrazole-3-carboxamide] | * (* = 0 μM ≤ SC150 < 0.1 μM)
CN1CC[C@@H](Nc2cccc3c2cc(-c2noc(CNC(=O)c4cccc(C(C)(C)O)c4)n2)n3CC(F)(F)F)[C@@H](F)C1 [Compound 549B, N-{[3-(4-{[(3S,4R)-3-fluoro-1-methylpiperidin-4-yl]amino}-1-(2,2,2-trifluoroethyl)-1H-indol-2-yl)-1,2,4-oxadiazol-5-yl]methyl}-3-(2-hydroxypropan-2-yl)benzamide] | * (* = 0 μM ≤ SC150 < 0.1 μM)
CN1CC[C@@H](Nc2cccc3c2cc(-c2noc(CNC(=O)c4ccnc(C(C)(C)O)c4)n2)n3CC(F)(F)F)[C@@H](F)C1 [Compound 550B, N-{[3-(4-{[(3S,4R)-3-fluoro-1-methylpiperidin-4-yl]amino}-1-(2,2,2-trifluoroethyl)-1H-indol-2-yl)-1,2,4-oxadiazol-5-yl]methyl}-2-(2-hydroxypropan-2-yl)pyridine-4-carboxamide] | * (* = 0 μM ≤ SC150 < 0.1 μM)
COCc1cc(C(=O)NCc2nc(-c3cc4c(N[C@@H]5CCN(C)C[C@@H]5F)cccc4n3CC(F)(F)F)no2)cc(C)n1 [Compound 551B, N-{[3-(4-{[(3S,4R)-3-fluoro-1-methylpiperidin-4-yl]amino}-1-(2,2,2-trifluoroethyl)-1H-indol-2-yl)-1,2,4-oxadiazol-5-yl]methyl}-2-(methoxymethyl)-6-methylpyridine-4-carboxamide] | * (* = 0 μM ≤ SC150 < 0.1 μM)
CN1CC[C@@H](Nc2cccc3c2cc(-c2cc(CNC(=O)c4ccn(C(C)(C)C)c4)on2)n3CC(F)(F)F)[C@@H](F)C1 [Compound 553B, 1-tert-butyl-N-{[3-(4-{[(3S,4R)-3-fluoro-1-methylpiperidin-4-yl]amino}-1-(2,2,2-trifluoroethyl)-1H-indol-2-yl)-1,2-oxazol-5-yl]methyl}-1H-pyrrole-3-carboxamide] | * (* = 0 μM ≤ SC150 < 0.1 μM)
CN1CC[C@@H](Nc2cccc3c2cc(-c2cc(CNC(=O)c4cnn(C(C)(C)C)c4)on2)n3CC(F)(F)F)[C@@H](F)C1 [Compound 554B, 1-tert-butyl-N-{[3-(4-{[(3S,4R)-3-fluoro-1-methylpiperidin-4-yl]amino}-1-(2,2,2-trifluoroethyl)-1H-indol-2-yl)-1,2-oxazol-5-yl]methyl}-1H-pyrazole-4-carboxamide] | * (* = 0 μM ≤ SC150 < 0.1 μM)
CN1CC[C@@H](Nc2cccc3c2cc(-c2cc(CNC(=O)c4csc(C(C)(C)O)c4)on2)n3CC(F)(F)F)[C@@H](F)C1 [Compound 555B, N-{[3-(4-{[(3S,4R)-3-fluoro-1-methylpiperidin-4-yl]amino}-1-(2,2,2-trifluoroethyl)-1H-indol-2-yl)-1,2-oxazol-5-yl]methyl}-5-(2-hydroxypropan-2-yl)thiophene-3-carboxamide] | * (* = 0 μM ≤ SC150 < 0.1 μM)
CN1CC[C@@H](Nc2cccc3c2cc(-c2noc(CNC(=O)c4cncn4CCF)n2)n3CC(F)(F)F)[C@@H](F)C1 [Compound 556B, N-{[3-(4-{[(3S,4R)-3-fluoro-1-methylpiperidin-4-yl]amino}-1-(2,2,2-trifluoroethyl)-1H-indol-2-yl)-1,2,4-oxadiazol-5-yl]methyl}-1-(2-fluoroethyl)-1H-imidazole-5-carboxamide] | * (* = 0 μM ≤ SC150 < 0.1 μM)
CN1CC[C@@H](Nc2cccc3c2cc(-c2noc(CNC(=O)c4ccc(N(C)C)nc4)n2)n3CC(F)(F)F)[C@@H](F)C1 [Compound 557B, 6-(dimethylamino)-N-{[3-(4-{[(3S,4R)-3-fluoro-1-methylpiperidin-4-yl]amino}-1-(2,2,2-trifluoroethyl)-1H-indol-2-yl)-1,2,4-oxadiazol-5-yl]methyl}pyridine-3-carboxamide] | * (* = 0 μM ≤ SC150 < 0.1 μM)
CN1CC[C@@H](Nc2cccc3c2cc(-c2noc(C(=O)NCC4CCOCC4)n2)n3CC(F)(F)F)[C@@H](F)C1 [Compound 558B, 3-(4-{[(3S,4R)-3-fluoro-1-methylpiperidin-4-yl]amino}-1-(2,2,2-trifluoroethyl)-1H-indol-2-yl)-N-[(oxan-4-yl)methyl]-1,2,4-oxadiazole-5-carboxamide] | * (* = 0 μM ≤ SC150 < 0.1 μM)
